Data taken from US7230096B2, “Inhibitors against galectins” (priority 2001, dated 2007).

How the values were obtained:
[1] = target: T1, recombinant human galectin-3 (Homo sapiens, UniProt P17931); assay: Inhibition of galectin-3 binding to Galα3Galβ4GlcNAcβ-HRP conjugate (galectin-3 coated microwells); conditions: for IC50: competitive inhibition of Galα3Galβ4GlcNAcβ trisaccharide:HRP conjugate binding to galectin-3 coated microwells, five-fold serial dilutions; for Krel: ratio of IC50 of reference compound 25 and IC50 of the inhibitor
T1 construct: made in house; host or cells: Escherichia coli
Protocol: NMR-spectra were recorded with a Bruker DRX-400 instrument. Chemical shifts are given in ppm, with reference to internal CHCl3 (δ 7.26 ppm) or HDO (δ 4.81 ppm). Chemical shifts and coupling constants were obtained from ^1H-NMR and proton resonances were assigned from COSY experiments. High-resolution FAB mass spectra (HRMS) were recorded with a JEOL SX-120 instrument. MALDI-TOF Spectra were recorded with a Bruker, Biflex instrument. Column chromatography was performed on SiO2 (Matrex, 60 Å, 35–70 μm, Grace Amicon) and TLC was carried out on SiO2 60 F254 (Merck) with detection under UV light and developed with aqueous sulfuric acid. Concentrations were made using rotary evaporation with bath temperature at or below 40° C. CH2Cl2 and CH3CN were dried by distillation from CaH2. Pyridine was dried over 4 Å molecular sieves. DMF was distilled and dried over 4 Å molecular sieves. MeOH and EtOH were dried over 3 Å molecular sieves. Microwell plates were from Nalge Nunc International (Nunc-immuno plate, maxisorp surface). PBS containing 0.05% Tween 20 is abbreviated PBS-T and PBS-T containing 1% BSA is abbreviated PBSA-T. Recombinant human galectin-3 was produced in Escherichia coli and purified as previously described (S. M. Massa et al, 1993). […] Microwell plates were developed with a TMB-peroxidase substrate kit (BioRad 172–1066) according to the manufacturers recommendations.
The compounds prepared above (12–24) were tested for their ability to inhibiting the binding of galectin-3 to a Galα3Galβ4GlcNAcβ trisaccharide:horseradish peroxidase conjugate.
Screening experiments. […] The wells were washed with PBS-T after 1 hour incubation at room temperature; followed by development with the TMB-peroxidase substrate kit. The reaction was stopped after 60 min by addition of 1N sulfuric acid (100 μL/well) and optical density was read at 450 nm. Each experiment was conducted twice with each sample in duplicate. […] Microtiter plate wells were coated with recombinant galectin-3 (10 μg/ml, 50 μl/well) from E. coli at 4° C. overnight, then washed three times with PBS-T. The wells were blocked with PBSA-T (100 μl/well) for 1 hour at room temperature, followed by washing with PBS-T. To the first well was added 125 μL of inhibitors 16, 18–19and 25 (0.2 mM in PBS-T). A five-fold serial dilution was performed by transfering 25 μL from the first well to a second well containing 100 μL PBS-T, mixing, then transfering 25 μL from the second well to a third well also containing 100 μL PBS-T, and so on to the eight well from which 25 μL were discarded. The dilution series was done in duplicate. […] Incubation, washing, and detection was performed as described above. The data was analyzed with non-linear regression analysis using the program Kaleidagraph™ from Synergy Software.

galectins = conditions: cited from earlier work

T1 sequence (P17931 whole entry): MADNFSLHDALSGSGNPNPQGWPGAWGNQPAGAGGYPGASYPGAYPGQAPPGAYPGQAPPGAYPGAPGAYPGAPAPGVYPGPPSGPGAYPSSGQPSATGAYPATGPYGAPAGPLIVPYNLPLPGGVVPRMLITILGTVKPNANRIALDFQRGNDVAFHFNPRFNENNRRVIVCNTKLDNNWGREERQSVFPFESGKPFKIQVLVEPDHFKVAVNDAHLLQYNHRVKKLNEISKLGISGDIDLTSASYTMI

| SMILES | IC50 [1] | Krel [1] | inhibition at 40 µM ([1]; 40 μM inhibitor concentration, screening experiment, read-out: Percent inhibition of Galα3Galβ4GlcNAcβ:HRP conjugate binding to galectin-3) | affinity relative to lactose (times lower) (galectins; galectins, compared with lactose) | Kd (galectins; all galectins) |
| --- | --- | --- | --- | --- | --- |
| CO[C@@H]1O[C@H](CO)[C@@H](O[C@@H]2O[C@H](CO)[C@H](O)[C@H](NC(=O)c3ccccc3)[C@H]2O)[C@H](O)[C@H]1NC(C)=O [Compound 16, methyl 2-acetamido-2-deoxy-4-O-(3-benzamido-3-deoxy-β-D-galactopyranosyl)-β-D-glucopyranoside] | 23 µM | 9 |  |  |  |
| COc1c(F)c(F)c(C(=O)N[C@H]2[C@@H](O)[C@@H](CO)O[C@@H](O[C@H]3[C@H](O)[C@@H](NC(C)=O)[C@H](OC)O[C@@H]3CO)[C@@H]2O)c(F)c1F [Compound 18, methyl 2-acetamido-2-deoxy-4-O-(3-[4-methoxy-2,3,5,6-tetrafluorobenzamido]-3-deoxy-β-D-galactopyranosyl)-β-D-glucopyranoside] | 4.8 µM | 41 |  |  |  |
| CO[C@@H]1O[C@H](CO)[C@@H](O[C@@H]2O[C@H](CO)[C@H](O)[C@H](NC(=O)c3c(F)c(F)c(F)c(F)c3C(=O)O)[C@H]2O)[C@H](O)[C@H]1NC(C)=O [Compound 19, methyl 2-acetamido-2-deoxy-4-O-(3-[2-carboxy-3,4,5,6-tetrafluorobenzamido]-3-deoxy-β-D-galactopyranosyl)-β-D-glucopyranoside] | 11.2 µM | 18 |  |  |  |
| CO[C@@H]1O[C@H](CO)[C@@H](O[C@@H]2O[C@H](CO)[C@H](O)[C@H](O)[C@H]2O)[C@H](O)[C@H]1NC(C)=O [Compound 25, methyl 4-O-β-D-galactopyranosyl-2-acetamido-2-deoxy-β-D-glucopyranoside, reference compound] | 199 µM | 1 | 13% |  |  |
| O=C[C@H](O)[C@@H](O)[C@@H](O)[C@H](O)CO [D-galactose] |  |  |  | 50–100 times lower |  |
| OC[C@H]1O[C@@H](O[C@H]2[C@H](O)[C@@H](O)C(O)O[C@@H]2CO)[C@H](O)[C@@H](O)[C@H]1O (some centres unmarked) [lactose] |  |  |  |  | 500 to 1000 µM |
